Measured values reported in patent US20220117920A1, “N-Aryl Benzenesulfonamides as Protonophores for the Treatment of Cancers, Metabolic Diseases and Traumatic Brain Injury” (University of Kentucky Research Foundation, priority 2019, published 2022).

How the values were obtained:
LS174T cells = experiment: ATP analysis (luminescence) in LS174T cells; type: cell-based, human; settings: 10 mM
Description: (§1) Biochemistry. Western blotting: Cells were lysed in the appropriate volume of lysis buffer: 50 mM HEPES, 100 mM NaCl, 2 mM EDTA, 1% (v/v) glycerol, 50 mM NaF, 1 mM Na3VO4, 1% (v/v) Triton X-100, with protease inhibitors. The following antibodies were used: AMPK (Cell Signaling, 2532, Cell Signaling Technologies, Danver, Mass., USA), pAMPK (Cell Signaling, 2535), ACC (Cell Signaling, 3676), pACC (Cell Signaling, 11818), Actin (Sigma, A1978). Antibodies for Axin 2, c-Myc and Cyclin D1 have been described previously. ATP analysis: Cells growing in 12-well plates were treated with DMSO or inhibitors in DMSO solution and lysed by adding 1 mL boiling doubly distilled water. Supernatants were analyzed by luminescence using ATP Determination Kit (Invitrogen, A22066; Thermo Fisher Scientific, Waltham, Mass., USA).

AMPK = experiment: Western blot of AMPK (T172) and ACC (S79) phosphorylation in CRC cells; type: cell-based, human; settings: for AMPK activation: concentration not given; for ACC (S79 phosphorylation) / AMPK activity (T172 phosphorylation): 3 μM
Description: as §1

Wnt signaling [1] = experiment: Wnt reporter assay, stable HEK293T cell line containing TOPFlash reporter, LiCl-activated; type: cell-based, human
From the text: (§2) To identify novel Wnt regulators by high throughput screening, a stable HEK293T cell line containing the TOPFlash reporter was established. To identify Wnt inhibitors that targeted molecular events downstream of β-catenin, we treated these cells with lithium chloride to inhibit GSK3 and to stabilize β-catenin. […] We also validated the results by transient transfection of Super 8× TOPFlash or 8× FOPFlash into HEK293T cells. […] Since the results from the stable and transient transfection are compatible, we used stable cell lines for all of the other experiments.
(§3) Reporter assay. Wnt reporter assay and cell staining assay have been described previously. We subcloned Super 8×TOPFlash (provided by Professor Randall Moon, University of Washington) into the pGL4.83 [hRlucP/Puro] Vector and transfected it into HEK293T cells. A stable HEK293T cell line containing the TOPFlash reporter was established using puromycin selection. To screen Wnt inhibitors that block the downstream signaling transduction pathway of β-catenin, we treated the reporter cells with 25 mM LiCl to stabilize β-catenin and activate Wnt signaling. The potential Wnt inhibitors identified from screening were validated by transfecting TOPFlash or FOPFlash plus control renilla reporters into HEK293T cells, and then treating the cells with DMSO or testing compounds in DMSO solution. The Wnt signaling was activated by LiCl or Wnt3A treatment.

[2] = tested on: purified mitochondria from mouse liver; experiment: Uncoupling assay (OCR) using purified mitochondria from mouse livers; type: biochemical
Description: All the steps were carried out at 4° C. or on ice. After mice were euthanized with CO2 followed by rapid decapitation, whole liver was quickly dissected out on a cold block and homogenized using a Teflon-glass dounce homogenizer containing isolation buffer (215 mM mannitol, 75 mM sucrose, 0.1% BSA, 20 mM HEPES, 1 mM EGTA, adjusted to pH 7.2 with KOH). The homogenate was transferred to a 2 mL-microcentrifuge tube and spun at 1,300×g for 3 min. The supernatant was transferred to a fresh 2 mL-microcentrifuge tube and spun at 13,000×g for 10 min. The supernatant was discarded, and the crude mitochondrial pellet was resuspended in a 1.5 mL-microcentrifuge tubes and pelleted again at 10,000×g for 10 min. The supernatant was discarded, and the mitochondrial pellets were resuspended in isolation buffer to obtain an approximate concentration ≥10 mg/mL of mitochondria. The absolute protein concentration was determined using a bicinchoninic acid (BCA) protein assay kit (Pierce, Cat #23,227) by recording absorbance at 560 nm on a Biotek Synergy HT plate reader (Winooski, Vt., USA).
Mitochondrial Bioenergetics Measurements. Mitochondrial bioenergetic measurements were carried out using a Seahorse XFe96 Extracellular Flux Analyzer (Agilent Technologies, Santa Clara, Calif., USA) to measure oxygen consumption rate (OCR) during various states of respiration. The OCR were measured in the presence of different substrates, inhibitors and uncouplers of the electron transport chain using previous methods with slight modifications. The stocks used for the assays were 500 mM pyruvate, 250 mM malate, and 30 mM adenosine diphosphate (ADP), and 1 M succinate (pH for all was adjusted to 7.2). […] Stock solutions of FH535, Y3, FH535-M, and Y3-M were prepared at 5 mM in 100% DMSO. As per the instructions from XFe96 Extracellular Flux kit, the sensor cartridge was hydrated with water and kept at 37° C. overnight before the experiment. One hour before the assay was conducted, water was removed from assay plates and XF calibrant was added before re-incubation. The injection ports A to D of the sensor cartridge were loaded with 25 μL of different combinations of the above substrates/inhibitors/uncouplers as follows. Before loading, the stocks were diluted appropriately in the respiration buffer (RB) (125 mM KCl, 0.1% BSA, 20 mM HEPES, 2 mM MgCl2, and 2.5 mM KH2PO4; pH 7.2) to get the final concentrations in the respiration chamber of 5 μM pyruvate, 2.5 μM malate, 10 μM of succinate and 1 μM ADP (via Port A), 1 μM oligomycin A (via Port B), 4 μM FCCP or 5 μM/1 μM FH535 or 5 μM/1 μM Y3 or 5 μM/1 μM FH535-M or 5 μM/1 μM Y3-M (via Port C) and 0.1 μM antimycin A (via Port D) starting with the initial volume of 175 μL RB in the chamber and diluting it to 9×, 10×, 11× and 12× with every injection through ports A to D, respectively. Once loaded, the sensor cartridge was placed into the Seahorse XFe96 Flux Analyzer for automated calibration. Seahorse Standard XFe96 assay plates were used for loading mitochondria. Initially total mitochondria were diluted to 6 μg/30 μL in RB and 30 μL was loaded in each well resulting in 6 μg mitochondria/well. The assay plates were centrifuged at 3,000 rpm for 4 min at 4° C. to adhere liver mitochondria at the bottom of the wells. After centrifugation, 145 μL RB (pre-incubated to 37° C.) was added without disturbing the mitochondrial layer to obtain a final volume of 175 μL per well. […]

DLD-1 cells = experiment: Seahorse uncoupling assay (OCR) in DLD-1 cells; type: cell-based, human; settings: for oxidative phosphorylation: data not shown
[3] = tested on: mitochondrial ATP production; experiment: Agilent Seahorse XF Real-Time ATP Rate Assay; type: cell-based, human
Description: Seahorse assay. Approximately 3×10^4 cells were seeded in XF96 Cell Culture microplate (80 μL of 3.75×10^5 cells/mL) for all experiments. On the next day, cell culture media were replaced with either Seahorse XF modified media with 25 mM glucose and 1 mM pyruvate. After media exchange, cells were treated with 1 μM of oligomycin A, 1.0 μM FCCP and mixture of 1.0 μM of rotenone and 1.0 μM of antimycin A in standard mitochondrial stress test conditions. To determine the uncoupler effects, FCCP was replaced with an equal volume of DMSO, or a compound to be tested in DMSO solution. ATP production rate was analyzed using Agilent Seahorse XF Real-Time ATP Rate Assay.

[4] = tested on: LS174T and DLD-1 CRC cells; experiment: Cell proliferation assay in colon cancer cells; type: cell-based, human
Description: Cell culture. LS174T colon cancer cells were cultured in EMEM (ATCC, 30-2003) containing 10% (v/v) Fetal Bovine Serum (Sigma F0926, Sigma Aldrich Corp., St. Louis, Mo., USA). The DLD-1, SW480 and SW620 colon cancer cells were cultured in DMEM (Sigma D6429) containing 10% (v/v) Fetal Bovine Serum (Sigma, F0926). For proliferation assays, cells (3.5×10^4 cells per well) were split into 12-well plates. After 24 h, 1 μL of each compound in DMSO solution were added to each well. DMSO was used as a control. Each experiment was done in triplicate. Cell viability and number were analyzed using the Vi-Cell XR Cell Viability Analyzer (Beckman Coulter, Indianapolis, Ind., USA).

Wnt signaling [5] = experiment: Transient transfection of Super 8× TOPFlash or 8× FOPFlash into HEK293T cells; type: cell-based, human
From the text: as §2
as §3, with “The Wnt signaling was activated by LiCl or Wnt3A treatment.” left out

Wnt target genes = experiment: Western blot of Wnt signaling components and downstream targets in CRC cell lines; type: cell-based, human; settings: three CRC cell lines
Description: as §1

[6] = tested on: mitochondrial membrane potential; experiment: Mitochondria membrane potential assay (TMRM staining); type: cell-based, human; settings: FTU-11 at 3 μM
Description: Mitochondria Membrane potential assay: DLD-1 and LS174T cells were plated onto 24-well plates and maintained in DMEM (DLD-1) and RPMI1640 (LS174T) with 10% (v/v) (DLD-1) and 5% (v/v) (LS174T) serum for one day. The cells were treated with DMSO or a testing compound in DMSO solution for 2 h, followed by staining with 100 nM tetramethylrhodamine methyl ester perchlorate (TMRM) (Cayman Chemical Company, MI, USA) for 15 min. Cells were rinsed once with PBS and then observed under fluorescence microscopy at 568 nm.

O=CC[C@@H](O)[C@H](O)[C@H](O)CO [2-DG, 2-deoxy-D-glucose]
ATP levels (LS174T cells): reduced ATP levels | AMPK activation (AMPK): activated AMPK | inhibition of Wnt signaling (Wnt signaling [1]; concentration not given): inhibited Wnt signaling

N#Cc1c(O)c2c(-c3ccc(-c4ccccc4O)cc3)csc2[nH]c1=O [A769662, 4-hydroxy-3-(2′-hydroxy-[1,1′-biphenyl]-4-yl)-6-oxo-6,7-dihydrothieno[2,3-b]pyridine-5-carbonitrile, reference compound]
AMPK activity (ACC S79 phosphorylation) (AMPK; without affecting AMPK phosphorylation): Increased AMPK activity | inhibition of Wnt signaling (Wnt signaling [1]; 10 μM): did not inhibit Wnt signaling

c1cc(-c2cnn3cc(-c4ccc(OCCN5CCOCC5)cc4)cnc23)ccn1 [Compound C, 4-(2-(4-(3-(pyridin-4-yl)pyrazolo[1,5-a]pyrimidin-6-yl)phenoxy)ethyl)morpholine, reference compound]
urea-induced AMPK phosphorylation and ACC phosphorylation (AMPK; 5 μM): decreased | rescue of Wnt signaling inhibited by FTU-11 (3 μM) and FDN-4E (3 μM) (Wnt signaling [1]; 5 μM): no effect

N#CC(C#N)=NNc1ccc(OC(F)(F)F)cc1 [FCCP, N-(4-(trifluoromethoxy)phenyl)carbonohydrazonoyl dicyanide, reference compound]
uncoupling: OCR blocked by oligomycin ([2]; control, 1 μM): rescued | AMPK activation (AMPK): strongly activated AMPK | uncoupling: OCR inhibited by oligomycin (DLD-1 cells; 1 μM, control): increased OCR inhibited by oligomycin | rate of ATP production in mitochondria ([3]; 1 μM, control): decreased the rates of ATP production in mitochondria | inhibition of Wnt signaling (Wnt signaling [1]; concentration not given): inhibited Wnt signaling

O=C(Nc1ccc(C(F)(F)F)cc1)Nc1cc(F)c(F)c(F)c1 [FDN-4E, 1-(4-(trifluoromethyl)phenyl)-3-(3,4,5-trifluorophenyl)urea]
ACC (S79 phosphorylation) (AMPK): inhibited ACC | AMPK activity (T172 phosphorylation) (AMPK): increased AMPK activity | proliferation of colon cancer cells [4]: inhibited the proliferation of colon cancer cells at sub-micromolar concentrations | inhibition of Wnt signaling (Wnt signaling [1]; concentration not given): inhibited Wnt signaling | TOPFlash and FOPFlash activity (Wnt signaling [5]): inhibited TOPFlash but not FOPFlash activity | Wnt target genes (Wnt target genes): inhibited Wnt target genes

Cc1cc([N+](=O)[O-])ccc1N(C)S(=O)(=O)c1cc(Cl)ccc1Cl [FH535-M, 2,5-dichloro-N-methyl-N-(2-methyl-4-nitrophenyl)benzenesulfonamide]
uncoupling: OCR blocked by oligomycin ([2]; 5 μM/1 μM): inactive | AMPK activity (T172 phosphorylation) (AMPK): lost activities | uncoupling: OCR inhibited by oligomycin (DLD-1 cells; testing compound 3 μM): no longer functioned as a mitochondrial uncoupler | inhibition of Wnt signaling (Wnt signaling [1]; 3 μM): lost activities

O=C(Nc1nnc(C(F)(F)F)s1)NC(CC(F)(F)F)(C(F)(F)F)C(F)(F)F [FTU-11, 1-(1,1,1,4,4,4-hexafluoro-2-(trifluoromethyl)butan-2-yl)-3-(5-(trifluoromethyl)-1,3,4-thiadiazol-2-yl)urea]
ACC (S79 phosphorylation) (AMPK): inhibited ACC | AMPK activity (T172 phosphorylation) (AMPK): increased AMPK activity | AMPK activation (AMPK): equal in potency to FDN-4E | proliferation of colon cancer cells [4]: inhibited the proliferation of colon cancer cells at sub-micromolar concentrations | mitochondrial membrane potential [6]: reduced mitochondrial membrane potential | mitochondrial membrane potential ([6]; listed as FTC-11): significantly reduced the membrane potential of mitochondria | uncoupling: OCR inhibited by oligomycin (DLD-1 cells; testing compound 3 μM): increased OCR inhibited by oligomycin | rate of ATP production in mitochondria ([3]; 3 μM): decreased the rates of ATP production in mitochondria | concentration at which Wnt signaling was inhibited (Wnt signaling [1]; 96-well assay using stable cell line): 0.5 mM | TOPFlash and FOPFlash activity (Wnt signaling [5]): inhibited TOPFlash but not FOPFlash activity | Wnt target genes (Wnt target genes): inhibited Wnt target genes

O=C1[C@H](Cc2ccc(O)cc2)N2C(=O)CCN(C(=O)NCc3ccccc3)[C@H]2CN1Cc1cccc2ccccc12 [ICG-001, (6S,9aS)—N-benzyl-6-(4-hydroxybenzyl)-8-(naphthalen-1-ylmethyl)-4,7-dioxohexahydro-2H-pyrazino[1,2-c]pyrimidine-1(6H)-carboxamide, reference compound]
AMPK activation (AMPK): no effect on AMPK | inhibition of Wnt signaling (Wnt signaling [1]; concentration not given): only inhibited Wnt signaling

CN(c1ccc([N+](=O)[O-])c2ccccc12)S(=O)(=O)c1cc(Cl)ccc1Cl [Y3-M, 2,5-dichloro-N-methyl-N-(4-nitronaphthalen-1-yl)benzenesulfonamide]
uncoupling: OCR blocked by oligomycin ([2]; 5 μM/1 μM): inactive | AMPK activity (T172 phosphorylation) (AMPK): lost activities | uncoupling: OCR inhibited by oligomycin (DLD-1 cells; testing compound 3 μM): failed as a mitochondrial uncoupler | inhibition of Wnt signaling (Wnt signaling [1]; 3 μM): lost activities

CC[C@H]1/C=C/C=C/C[C@@H](C)[C@H](O)[C@@](C)(O)C(=O)[C@@H](C)[C@H](O)[C@@H](C)C(=O)[C@@H](C)[C@H](O)[C@@H](C)/C=C/C(=O)O[C@@H]2[C@H](C)[C@H](CC1)O[C@]1(CC[C@H](C)[C@H](C[C@@H](C)O)O1)[C@H]2C [oligomycin, reference compound]
AMPK activation (AMPK): activated AMPK | oxidative phosphorylation (DLD-1 cells): inhibited oxidative phosphorylation | inhibition of Wnt signaling (Wnt signaling [1]; concentration not given): inhibited Wnt signaling

C=C(C)[C@H]1Cc2c(ccc3c2O[C@@H]2COc4cc(OC)c(OC)cc4[C@@H]2C3=O)O1 [rotenone, reference compound]
AMPK activation (AMPK): activated AMPK | oxidative phosphorylation (DLD-1 cells): inhibited oxidative phosphorylation | inhibition of Wnt signaling (Wnt signaling [1]; concentration not given): inhibited Wnt signaling

antimycin [reference compound]
AMPK activation (AMPK): activated AMPK | oxidative phosphorylation (DLD-1 cells): inhibited oxidative phosphorylation | inhibition of Wnt signaling (Wnt signaling [1]; concentration not given): inhibited Wnt signaling
